Measured values taken from patent publication US20240382487A1, “NOVEL COPI/ARF1-LIPOLYSIS PATHWAY INHIBITOR AND COMPOUND FOR ERADICATING CANCER STEM CELLS AND INDUCING DAMP-MEDIATED ANTI-TUMOR IMMUNE RESPONSE” (FUDAN UNIVERSITY, priority 2020, published 2024).

Tested on: IL-1β
Assay: IL-1β induction, B16-F10 melanoma model
Format: cell-based
Details: B16-F10 melanoma model in C57B/6 mice
From the text: Example 7. Dulo2 Treatment Induces IL-1 in B16-F10 Melanoma of C57B/6 Mice. (Table 12)

1H-indolo-5-carbaldehyde 5,6,7,8,9,10-hexahydrocycloocta[4,5]thieno[2,3-d]pyrimidin-4-ylhydrazone [Du 102]
IL-1β: 952
